One series deals with VASP (serine 157). In words: VASP phosphorylation in human platelets. The series is classed as cell-based. The conditions noted are these: 25 μM, 1 min; vs DMSO. The protocol:
Washed platelets were treated with PUFA or PUFA metabolite (12(S)-HETrE or compound IIc) for one minute, then directly lysed in 5× Laemmeli sample buffer (1.5 M Tris-HCl, pH 6.8, glycerol, 5% β-mercaptoethanol, 10% sodium dodecyl sulfate (SDS), and 1% bromophenol blue). The samples were boiled for five minutes and then run on a 10% SDS-PAGE gel. The levels of total and phospho-VASP (serine 157) were quantified by Western Blot using an Odyssey imaging system (LI-CoR).

In series [1] the test system is platelets of mice expressing the human FcγRIIa receptor. Put plainly: Animal model of ITP (anti-GPIX in mice expressing human FcγRIIa). The conditions noted are these: 6 mg/kg i.v. 10 min before GPIX antibody. The series is classed as in vivo, mouse. The protocol:
Mice expressing the human immune-receptor FcγRIIa were injected IV with GPIX, an antibody known to induce acute ITP (Stolla et al., Blood 118(4): 1113-1120, 2011) as previously described (Yeung et al., Blood 124(4): 2271-2279, 2014). […] To determine if 12(S)-HETrE compounds would be viable therapeutics to prevent ITP in this model, 6 mg/kg 12(S)-HETrE was injected IV 10 minutes prior to GPIX antibody injection, and platelet count was measured at several time points prior to and following antibody injection. Additionally, immunofluorescent-labelled platelets that had been injected prior to the onset of ITP were measured in excised lungs 4 hours following GPIX administration.

The next series relates to adenylyl cyclase. Put plainly: LC/MS quantification of cAMP in washed human platelets. The series is classed as cell-based. As to conditions: 25 μM, 1 min; platelets pre-treated with 10 μM IBMX; vs DMSO. The protocol: Washed human platelets were treated with the specific ligand or vehicle control for 1 min at room temperature, and quenched with an equal volume of ice-cold 2× platelet lysis buffer containing protease and phosphatase inhibitors. Lysed platelet samples were centrifuged at 14,000 g for 7 min at 4° C. to pellet cytoskeleton and the supernatant was stored in −80° C.
To prepare the sample for LC/MS injection, 200 μL of the supernatant was spiked with 400 pg of adenosine-3′,5′-cyclic-13C5 monophosphate (^13C5-cAMP) (Toronto Research Chemicals, Inc.), an internal standard, and 600 μL of LC/MS grade acetonitrile (Fisher Scientific). The sample was briefly vortexed and centrifuged at 14,000 rpm for 10 min at 4° C. The supernatants were then air dried in a SpeedVac and reconstituted in 200 μL of LC/MS grade water and centrifuged at 10,000 rpm for 5 min at 4° C. and used for LC/MS injection.
The separation and detection of cAMP was performed on a Waters ACQUITY UPLC system equipped with a Xevo Triple Quadrupole Mass Spectrometer (TQ-S MS/MS). […]
The mass spectrometer was operated with an ESI source in positive mode. […] Cyclic AMP (cAMP) was quantitated using ^13C5-cAMP as the internal standard. […]

Series [2] relates to washed platelets from WT or 12-LOX−/− mice. Put plainly: Platelet aggregation, washed murine platelets (lumi-aggregometer). The series is classed as cell-based, mouse. As to conditions: 25 μM 12-LOX oxylipin, 10 min, vs vehicle. On the procedure:
The 12-LOX null C57BL/6 (12-LOX^−/−) mice were generated using homozygous breeding pairs and wild-type (WT) C57BL/6 ([…]) mice were purchased (Jackson Laboratory). […] Mouse blood was diluted with equal volumes of Tyrode's buffer (10 mM HEPES, 11.9 mM sodium bicarbonate, 127.2 mM sodium chloride, 5 mM potassium chloride, 0.4 mM sodium phosphate monobasic, 1 mM magnesium chloride, and 5 mM D-glucose) and centrifuged at 200×g. Platelet-rich-plasma (PRP) was transferred to a tube containing 10× acid citrate dextrose solution (ACD) (2.5% sodium citrate, 1.5% citric acid, and 2% D-glucose) and apyrase (0.02 U/mL), and centrifuged at 2000×g. Platelet count was adjusted to 3×10^8 platelets/mL with Tyrode's buffer for all studies.
A lumi-aggregometer (Chrono-log model 700D) was used to measure platelet aggregation under stirring conditions (1100 rpm) at 37° C. Prior to agonist stimulation platelets were incubated with a preselected PUFA or oxylipin for 10 minutes.

The test system of the next series is washed human platelets. Put plainly: Human platelet aggregation after pre-treatment with adenylyl cyclase inhibitor SQ 22536. As to conditions: platelets pre-treated with SQ 22536 (25 μM, 20 min); 12-HETrE 7.5 to 25 μM, 1 min; EC80 PAR4-AP. The series is classed as cell-based. On the procedure:
Blood from healthy donors was collected into vacutainers containing buffered sodium citrate, and platelets were isolated by serial centrifugation as described above for mouse platelets. The platelets were resuspended in Tyrode's buffer at 3×10^8 platelets/mL, unless otherwise specified.
A lumi-aggregometer (Chrono-log model 700D) was used to measure platelet aggregation under stirring conditions (1100 rpm) at 37° C. […]

Series [3] in a line: Cremaster muscle arterial puncture model of hemostasis. The series is classed as in vivo, mouse. As to conditions: laser puncture of cremaster arteriole; vs control treated mice. On the procedure: Mice were anesthetized, tail vein injected with anti-platelet and anti-fibrin antibodies and their cremaster muscle arterioles were prepared as described above. A high intensity laser pulse from the laser ablation system was used to puncture a hole in the cremaster muscle arteriole wall as visualized by red blood cell (RBC) leakage from the vessel. Images of RBCs leakage and hemostatic plug formation were acquired in real-time with a fluorescent microscope as described above. Arterial bleeding time was defined as the time from laser pulse injury until cessation of RBC leakage from the vessel.

Another series is described as follows: Tail bleeding assay. As to conditions: mice retro-orbitally injected; 5 mm tail tip excised; vs control. The series is classed as in vivo, mouse. On the procedure: Mice were anesthetized with ketamine/xyzaline and placed on a heating pad in prone position, the tip of the tail (5 mm) was excised with a sterile scalpel, and the tails were immediately immersed into isotonic saline solution (0.9%) warmed to 37° C. Bleeding time was assessed until cessation of blood flow from the tail for 1 minute.

The structures appear in SMILES notation. “Also recorded” adds a separate entry of the source.

The text below walks through data of patent US11111222B2, “Hydroxyeicosatrienoic acid compounds and their use as therapeutic agents” (THE REGENTS OF THE UNIVERSITY OF MICHIGAN, priority 2016, dated 2021).

`CCCCC/C=C\C[C@H](O)/C=C/C=C\CCCCCCC(=O)O` [12(S)-HETrE, 12(S)-hydroxy-8Z,10E,14Z-eicosatrienoic acid]: the “VASP phosphorylation (S157)” value in the series with VASP (serine 157) is listed as “enhanced VASP phosphorylation”. Also, the “reduction of thrombi in the lungs” value in series [1] (excised lungs) was “more than 40%”. For the same molecule, the “accumulation of fluorescently labeled platelets in the lungs” value in series [1] (lungs excised 4 hours after GPIX, vs vehicle) was “prevented accumulation of fluorescently labeled platelets in the lungs”. In series [1] (vs vehicle), the “platelet count (thrombocytopenia)” value is listed as “no signs of thrombocytopenia; also recorded: prevented thrombocytopenia”. The “level of intracellular cAMP” value in the series with adenylyl cyclase is “significant increase in the level of intracellular cAMP”. The platelet aggregation result was “inhibited the aggregation” in series [2] (12-LOX−/− mouse platelets, EC80 PAR4-AP (200 μM) or collagen (2 or 5 μg/mL)) and “inhibited the aggregation” in series [2] (WT mouse platelets, EC80 PAR4-AP (100 μM) or collagen (5 μg/mL)). In addition, in the series with washed human platelets, the PAR4-AP-mediated platelet aggregation entry is “unable to inhibit PAR4-AP-mediated platelet aggregation”. For the same molecule, the “duration of RBC leakage (arterial bleeding time)” value in series [3] is “No significant difference in the duration of RBC leakage”. In the series “Tail bleeding assay”, the tail bleeding time entry is “no significant difference in tail bleeding time”.
